This is an account of results in ChEMBL document CHEMBL3400044, “Minimization of drug-drug interaction risk and candidate selection in a natural product-based class of gamma-secretase modulators” (Bioorg Med Chem Lett, 2015).

Structures are written as SMILES.

A short description of this series: physchem.
Consider `CCO[C@@H]([C@H]1C[C@@H](C)[C@H]2[C@H](O1)[C@H](O)[C@@]1(C)[C@@H]3CC[C@H]4C(C)(C)[C@@H](O[C@H]5CN(CCN6CCC6)CCO5)CC[C@@]45C[C@@]35CC[C@]21C)C(C)(C)O`, for which the pKa – broadly, the negative logarithm of the acid dissociation constant – worked out at 9.4.

Take `CCO[C@@H]([C@H]1C[C@@H](C)[C@H]2[C@H](O1)[C@H](O)[C@@]1(C)[C@@H]3CC[C@H]4C(C)(C)[C@@H](O[C@H]5CN(C6COC6)CCO5)CC[C@@]45C[C@@]35CC[C@]21C)C(C)(C)O`: the pKa was 5.1.

For the molecule `CCO[C@@H]([C@H]1C[C@@H](C)[C@H]2[C@H](O1)[C@H](O)[C@@]1(C)[C@@H]3CC[C@H]4C(C)(C)[C@@H](O[C@H]5CNCCO5)CC[C@@]45C[C@@]35CC[C@]21C)C(C)(C)O`, the pKa came to 7.8.

In the case of `CCO[C@@H]([C@H]1C[C@@H](C)[C@H]2[C@H](O1)[C@H](O)[C@@]1(C)[C@@H]3CC[C@H]4C(C)(C)[C@@H](O[C@H]5CN(CC(=O)N6CCC6)CCO5)CC[C@@]45C[C@@]35CC[C@]21C)C(C)(C)O`, the pKa stood at 5.2.

Molecule `CCO[C@@H]([C@H]1C[C@@H](C)[C@H]2[C@H](O1)[C@H](O)[C@@]1(C)[C@@H]3CC[C@H]4C(C)(C)[C@@H](O[C@H]5CN(C6CNC6)CCO5)CC[C@@]45C[C@@]35CC[C@]21C)C(C)(C)O` showed a pKa of 10.7.

`CCO[C@@H]([C@H]1C[C@@H](C)[C@H]2[C@H](O1)[C@H](O)[C@@]1(C)[C@@H]3CC[C@H]4C(C)(C)[C@@H](O[C@H]5CN(C)CCO5)CC[C@@]45C[C@@]35CC[C@]21C)C(C)(C)O`: the pKa worked out at 7.2.

The molecule `CCO[C@@H]([C@H]1C[C@@H](C)[C@H]2[C@H](O1)[C@H](O)[C@@]1(C)[C@@H]3CC[C@H]4C(C)(C)[C@@H](O[C@H]5CN(C6(C)COC6)CCO5)CC[C@@]45C[C@@]35CC[C@]21C)C(C)(C)O` returned a pKa of 5.2.

Molecule `CCO[C@@H]([C@H]1C[C@@H](C)[C@H]2[C@H](O1)[C@H](O)[C@@]1(C)[C@@H]3CC[C@H]4C(C)(C)[C@@H](O[C@H]5CN(CC)CCO5)CC[C@@]45C[C@@]35CC[C@]21C)C(C)(C)O` displayed a pKa of 7.3.
